Assay: gradient 5% acetonitrile 3 min, to 50% in 2 min, to 85% in 15 min, held 3 min, 100 µL/min
Details: column: Zorbax Extend-C18 2.1 x 50 mm; eluents: water / acetonitrile, 0.1% formic acid
Procedure, shortened: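 Retention time was recorded from adduct peaks, which were picked computationally and each inspected manually. Pure standards ran in mixtures of ~100 molecules on HPLC coupled to a quadrupole time-of-flight mass spectrometer, in positive and negative ionization mode, through a Zorbax Extend-C18 column (2.1 × 50 mm, 1.8 μm) at 100 μL/min. Eluents were water and acetonitrile, each with 0.1% formic acid.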

Structure (SMILES)	RP-LC retention time [s]
CCN(CC)CCNC(=O)CN1CC(C)Sc2ccccc21 (configuration not stated)	656
CCn1ncc(Cl)c1C(=O)N1CCCC1c1cc(C)no1 (configuration not stated)	741
CC1=C(c2ccc(Cl)cc2)S(=O)(=O)N=C1N1CCC(C(=O)NCCN2CCOCC2)CC1	592
CCCN1C(=O)COc2ccc(-c3csc(NC(=O)c4ccncc4)n3)cc21	816
CC(C)n1c(-c2cccc(C(=O)NCc3cccs3)c2)nc2cccnc21	787
Cc1cccc(Nc2nc(C(=O)NCc3ccc(F)cc3F)cs2)n1	843
Cc1cc(N2CCN(c3ccccn3)CC2)n2nc(C(F)(F)F)c(-c3ccc(F)cc3)c2n1	870
Cc1nnc2ccc(S(=O)(=O)N(Cc3ccc(F)cc3)c3ccccc3)cn12	863
Cc1ccc(C(=O)N2CC3CN(S(=O)(=O)c4cccc(F)c4)CC(C2)O3)s1	821
CC(C)COc1cc(=O)n2c(c1C(=O)N1CCN(c3ccccn3)CC1)CCCCC2	591
Cc1nnc(-c2cccc(Cl)c2)nc1N1CCC(C)CC1	986
CCc1ccc(NC(=O)Cn2c(C)nc3c(sc4nc(-c5ccccc5)ccc43)c2=O)cc1	1120
N#CCCN1CCN(c2ccc(NC(=O)C3CCC3)c(C(=O)O)c2)CC1	586
COc1ccc(-c2noc(C3CCCN3C(=O)Nc3ccc(OC)c(OC)c3)n2)cc1 (configuration not stated)	952
CCn1c(=O)c(C(=O)NC2CC2)nc2cc(C)c(C)cc21	887
CC(=O)c1cccc(NC(=O)Cn2ccc3ccc(-c4nnc(C)o4)cc32)c1	762
CCOC(=O)Cc1csc(NC(=O)c2csc(Nc3cccc(Cl)c3)n2)n1	952
Cc1ccccc1-c1noc(CCc2nnc3ccc(N4CCOCC4)nn23)n1	782
CCc1noc(-c2ccc(-n3cnc(C(=O)NC4CCCC4)c3)nc2)n1	865
CCCCN(C)C(=O)c1ccc2c(c1)nc1n2CCN(C2CCCCC2)C1=O	786
CCOC(=O)CSc1nnc(-c2nnc(SCC(=O)OCC)n2CC)n1CC	758
COc1cc2nc(C(=O)N3CCCCC3)cc(Nc3ccc(Br)c(C)c3)c2cc1OC	779
CCn1ccc2sc(C)c(C(=O)NCc3ccc(OC)cc3)c2c1=O	786
CCOc1ccc(N2C=C(C(=O)OC)S(=O)(=O)c3ccc(F)cc32)cc1	856
CC(C)(C)C(=O)N1CCCC(c2nc(CCNC(=O)C3CC3)cs2)C1 (configuration not stated)	710

Next, values leading:

RP-LC retention time [s]	Structure (SMILES)
662	CCOc1ccc(S(=O)(=O)N2CCC(C(=O)NCc3ccncc3)CC2)cc1C
596	CCNC(=O)N1CCCC(c2cccc(C(=O)NCCCN3CCCCC3)c2)C1 (configuration not stated)
773	COc1ccc(CCNC(=O)N2CC(c3nc(-c4cccs4)no3)C2)cc1
623	O=C1CCC2(CNC(=O)NCCc3ccccc3)CCCC=C2N1 (configuration not stated)
959	Cn1cnc2c(C(=O)NCCC3=CCCCC3)nn(-c3ccc(Cl)cc3)c2c1=O
633	COCCNC(=O)Cc1c(C)n(C)c2nc(-c3ccccc3)nn2c1=O
875	Cc1ccc(CN2CCCn3nc(C(=O)NCc4ccc(C)o4)cc3C2=O)cc1
782	Cc1cccnc1NC(=O)C1c2ccccc2C(=O)N(Cc2ccccc2)C12CCCC2 (configuration not stated)
1200	Cc1cccc(CNC(=O)c2cc3c(-c4cccs4)nn(-c4ccccc4)c3n2C)c1
806	O=C(Nc1ccccc1NC(=O)c1ccc(Br)o1)c1ccsc1
797	Cc1ccccc1NC(=O)Cn1ncc2c(c1=O)N(CC1CC1)C(=O)CS2
871	COc1cc(C2CC(=O)N(CC(=O)N3CCCCC3)c3ccccc3S2)cc(OC)c1OC (configuration not stated)

— the METLIN SMRT retention time set (Domingo-Almenara et al. 2019)
